How the values were obtained:
[1] = system: T47D cells; test: PrestoBlue viability assay, T47D; assay type: cell-based; details: 1 nM E2, 72 h treatment, ± SD of 3 biological replicates
Protocol: T47D, MCF7, TamR3, and MDA-MB-231 cells were starved for 72 h and then seeded into black clear-bottom 96-well plates (Corning Life Sciences Cat#3904) at 20,000 cells/well (T47D, MCF7, TamR3) or 5,000 cells/well (MDA-MB-231). […] 20 µl of PrestoBlue Cell Viability Reagent (Thermo Fisher A13262) was added to each well and incubated at 37 °C for 1 h. Fluorescence intensity was measured using the TECAN F500 plate reader with emission and excitation wavelengths of […], respectively.

[2] = molecular target: T1, recombinant ER-LBD (residues 298–554) (Homo sapiens, UniProt P03372); test: Microscale thermophoresis (MST) direct binding; details: averaged from three independent assays, 20 µM E2 in buffer, read-out: Kd (binding affinity to ER-LBD)
T1 construct: The ER-LBD (residues 298–554) was cloned into pET28a bacterial expression plasmid; His-tag (N); made in house; host or cells: E. coli BL21-DE3 (with pRARE)
Protocol: The ER-LBD (residues 298–554) was cloned into pET28a bacterial expression plasmid with an N-terminal His-tag. pET28a-His-ER and pRARE were transformed into E. coli (BL21-DE3). Bacteria were grown at 37 [drawing 1] C overnight, and then diluted 1:20 the following day in LB media and grown at 37 [drawing 2] C until the OD600 reached 0.5. Protein expression was induced with 1 mM IPTG, and 50 µM E2 was added to the media. Cells were then grown for 5 h at 25 °C. Bacterial pellets were collected by centrifugation at 13,000 rpm for 7 min. Pellets were resuspended in lysis buffer (25 mM Tris, pH 8.4, 150 mM NaCl, 20 µM E2, 1 mM DTT, 0.1 mM PMSF, cOmplete protease inhibitor (Roche)) then sonicated and centrifuged to obtain the soluble extracts. ER-LBD was purified using affinity chromatography with Ni-NTA agarose resin. The presence of the ER-LBD in eluted fractions was confirmed by SDS-PAGE and validated by mass spectrometry. The eluted protein was further purified by size exclusion chromatography (s75), and fractions containing the ER-LBD protein were pooled and concentrated using Amicon Ultra centrifugal filters (3 K MWCO).
MST was used to validate the direct binding and measure the binding affinities between the lead compounds and the recombinant ER-LBD. […]

[3] = molecular target: T2, ER-SRC3 interaction in MCF7 cells (Homo sapiens, UniProt P03372); test: Proximity ligation assay (PLA), MCF7; assay type: cell-based; details: 10 µM, 48 h, E2 stimulation
T2 construct: endogenous in cells; host or cells: MCF7 or TamR3 cells
Protocol: MCF7 or TamR3 cells were starved for 72 h and then seeded onto PEI coated coverslips in a 6-well plate at 1 × 10^5 cells/well. […] […] […] Coverslips were then permeabilized with 0.05% Triton X-100 for 5 minutes at room temperature. The Duolink In Situ Detection Reagents Red kit from Millipore Sigma (DUO92008) was used for blocking and PLA according to the manufacturer’s protocol. Primary antibodies, Estrogen Receptor alpha antibody (F-10) (sc-8002) and Rabbit anti-SRC3 antibody (A300-348 A), were diluted 1:50 in antibody diluent.

[4] = system: MCF7 spheroids; test: Viability assay in 3D spheroids, MCF7; assay type: cell-based; details: Homo sapiens, 1:2 dilution from 50 µM, 1 nM E2, read-out: IC50 on growth (area) of MCF7 spheroids
Protocol: MCF7 and T47D cells were seeded into a Corning Costar ultra-low attachment, round-bottom, 96-well plate (Millipore Sigma, CLS7007-24EA) at a density of 2,500 cells/well in starvation media. After 4 days of starvation, the cells were treated with a 1:2 serial dilution of inhibitor from 50 µM to 0.2 µM in the presence of 1 nM estradiol. Images were taken every 6 h using the IncuCyte S3 system and spheroid sizes were determined with the IncuCyte analysis software.

[5] = system: TamR3 spheroids; test: Viability assay in 3D spheroids, TamR3; assay type: cell-based; details: 1:2 dilution from 50 µM, 1 nM E2; read-out: IC50 on growth (area) of TamR3 spheroids

T2 sequence (P03372 whole entry): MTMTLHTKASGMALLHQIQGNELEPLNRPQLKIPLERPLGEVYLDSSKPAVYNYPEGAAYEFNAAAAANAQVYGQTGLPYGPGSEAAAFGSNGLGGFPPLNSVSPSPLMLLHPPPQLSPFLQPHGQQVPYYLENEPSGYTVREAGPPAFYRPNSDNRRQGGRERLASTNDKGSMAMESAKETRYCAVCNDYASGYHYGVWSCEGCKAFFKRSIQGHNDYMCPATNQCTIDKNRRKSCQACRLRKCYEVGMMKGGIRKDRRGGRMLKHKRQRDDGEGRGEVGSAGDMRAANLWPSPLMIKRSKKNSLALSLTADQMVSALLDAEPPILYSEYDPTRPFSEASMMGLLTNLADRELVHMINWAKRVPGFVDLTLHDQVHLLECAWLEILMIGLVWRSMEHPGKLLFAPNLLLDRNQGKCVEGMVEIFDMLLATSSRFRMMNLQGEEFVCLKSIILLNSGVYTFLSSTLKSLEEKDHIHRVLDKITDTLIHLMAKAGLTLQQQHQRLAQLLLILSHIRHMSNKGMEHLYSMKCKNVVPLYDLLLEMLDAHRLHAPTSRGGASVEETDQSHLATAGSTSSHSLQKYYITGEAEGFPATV
T1 sequence (P03372 298-554): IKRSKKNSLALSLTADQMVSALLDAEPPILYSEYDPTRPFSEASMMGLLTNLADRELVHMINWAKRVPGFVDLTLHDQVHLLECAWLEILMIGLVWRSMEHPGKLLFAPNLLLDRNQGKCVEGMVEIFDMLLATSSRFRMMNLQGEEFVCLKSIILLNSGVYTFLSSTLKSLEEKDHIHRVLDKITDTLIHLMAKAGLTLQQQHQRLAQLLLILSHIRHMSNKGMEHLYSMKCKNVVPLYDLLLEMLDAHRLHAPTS

## Cc1cccn2c(CNCc3cccc(N(C)C)n3)cnc12 [VPC-260724]
[1]
  IC50: 7.42 ± 2.12 µM
[1]; Homo sapiens, T47D, 72 h
  IC50: 7.4 µM
[2]
  Kd: 85.2 ± 32.7 µM
[3]
  ER-SRC3 interactions (PLA signals per nuclei), MCF7: significantly reduced ER-SRC3 interactions
[4]
  IC50: 15.6 ± 1.4 µM
[5]
  IC50: 27 ± 3.2 µM

— paper PMC11590367, “Characterization of novel small molecule inhibitors of estrogen receptor-activation function 2 (ER-AF2)” (Breast Cancer Research : BCR, 2024)
